Data on 1 molecule can be found in paper PMC8253137, “Microbiota-derived butyrate is an endogenous HIF prolyl hydroxylase inhibitor” (Gut Microbes, 2021).

SMILES strings stand for the structures. “Also recorded” adds a separate entry of the source.

The target in assay [1] is T1, PHD2_181-402 (Homo sapiens, UniProt Q9GZT9). Briefly: WaterLOGSY 1D NMR binding. The settings on record: for binding to PHD2_181-402 (WaterLOGSY signal): 10 mM ligand, 25 μM PHD2_181-402. The text has this: Next, we established whether butyrate binds directly to PHD2_181-402 using 1D WaterLOGSY NMR.[28] This method enables sensitive and robust detection of binding (dissociation constants as weak as μM to low mM) based on the magnetization transfer between water molecules, proteins, and ligands of interest in close proximity via dipolar proton–proton cross-relaxation (nuclear Overhauser effect, NOE). […] Binding and non-binding ligands can be distinguished in a WaterLOGSY spectrum via their opposite signs in relation to water for their corresponding peaks.
Following an established protocol, all NMR analyses were performed using PHD2_181-402 and the diamagnetic element (Zn^2+) rather than a paramagnetic element such as Fe^2+ that would result in inhibitive signal reduction or loss due to fast relaxation induced by the unpaired electron.[63]
Water-Ligand Observed via Gradient SpectroscopY (WaterLOGSY): Measurements were carried out on a 600 MHz triple-resonance Bruker cryoprobe spectrometer.[28] Selective water inversion was achieved using an iBURP shaped pulse with 15 ms length and an inversion bandwidth of 0.4 ppm. The mixing time was set to 1 s, and the water was suppressed using double Watergate. 1024 scans were acquired with an interscan delay of 2 s. The sample concentration was 25 µM of PHD2_181-402 mixed with 10 mM of the different ligands in NMR buffer (Tris 50 mM, NaCl 20 mM, ZnCl2 100 μM) at pH 6.5.

In another assay the test system is murine colon tissue. Briefly: Rectal gavage in antibiotic-treated SCFA-depleted mice. The assay is classed as in vivo. The settings on record: after antibiotics. As for the experimental part: C57BL/6 mice were purchased from Jackson Laboratories. Animals were maintained and bred in standard housing conditions under 24 h/day, 7 days/week veterinary care available at the University of Colorado Anschutz Medical Campus (AMC) animal facility. All animal procedures were reviewed and approved by the Institutional Animal Care and Use Committee at AMC. 8 to 10-week-old male and female mice were pre-administered an antibiotic cocktail consisting of 1 mg/mL ampicillin, gentamicin, and neomycin, 0.5 mg/mL vancomycin, and 0.25 mg/mL metronidazole for 5 d ad libitum in addition to water control mice. Mice were then given 200 µL of tributyrin daily for three days using reusable feeding needles (18060–20, Fine Science Tools). On the third day, 4 h prior to sacrifice, select mice given tributyrin were rectally given 100 μL of 60 mM MCPA with plastic gavage tubes (FTP-20-38-50, Instech) inserted 1 cm into the rectum without surgical lubricant. Whole colon tissue at the site of the rectal gavage was collected for metabolite analysis, while colon whole tissue and epithelial scrapings upstream from the gavage site was collected for RNA and protein analysis. In the second butyrate reconstitution experiment, mice were rectally given 100 μL of 100 mM butyrate, 100 mM butyrate with 10 mM MCPA, 1.5 mM IOX2, or PBS control under anesthesia. Mice were then sacrificed 1 h after rectal supplementation and colon tissues collected for metabolite, mRNA, and protein analysis from the site of the rectal gavage.
TRIzol® reagent (ThermoFisher Scientific) was used to isolate total RNA from T84 cells. Mouse colon tissue samples were harvested into RNAlater™ (Invitrogen) and stored at 4°C for 48 h. Total RNA was isolated from the tissues using RNeasy Plus Mini Kit (Qiagen). cDNA was prepared using the iScript cDNA Synthesis Kit (Bio-Rad). Quantitative PCR analysis was performed using the Power SYBR™ Green master mix (Applied Biosystems) in a thermocycler. Fold change in expression of target mRNA relative to β-actin (ACTB) mRNA was calculated using the delta-delta Ct method. Primer sequences used are as follows: hBNIP3 – forward, 5′- […] −3′, reverse, 5′- […] −3′; hBNIP3L – forward, 5′- […] −3′, reverse, 5′- […] −3′; hGLUT1 – forward, 5′- […] −3′, reverse, 5′- […] −3′; hACTB – forward, 5′- […]-3′, reverse, 5′- […]-3′; mBnip3 – forward, 5′- […] −3′, reverse, 5′- […] −3′; mBnip3l – forward, 5′- […] −3′, reverse, 5′- […] −3′; mGlut1 – forward, 5′- […] −3′, reverse, 5′- […] −3′; and mActb – forward, 5′- […] −3′, reverse, 5′- […] −3′.
T84 cells were rinsed with PBS and collected and lysed in 200 µL of radioimmunoprecipitation assay (RIPA, 50 mM Tris-HCl pH 8.0, 1 mM EDTA, 1% Triton X-100, […], 0.5% sodium deoxycholate, 150 mM NaCl) buffer with protease inhibitors on ice. Mouse colon samples were harvested into 350 µL of RIPA buffer and flash frozen in liquid nitrogen. Samples were homogenized by sonication, and insoluble materials removed by centrifugation at 10,000 g for 5 min at 4°C. Protein quantity of the supernatant was determined using the Bradford reagent. Laemmli sample buffer was added to each sample. Samples (20 µg) were run and separated on 8% SDS-PAGE gels and transferred to polyvinylidene fluoride (PVDF) membranes. Membranes were blocked overnight at 4°C in Tris-buffered saline with 1% Tween-20 (TBS-T) and 5% milk. […]

The target in assay [2] is T1, PHD2_181-402. Briefly: PHD2_181-402 inhibition assay (bioluminescent succinate detection, Succinate-Glo). In kind it is biochemical. As for the experimental part:
PHD2_181-402 activity and inhibition assays were performed with the Succinate-Glo JmjC Demethylase/Hydroxylase Assay Kit (Promega) according to manufacturer protocol and as detailed in Alves et al. […] The enzymatic reaction was incubated at room temperature for 10 minutes, after which succinate formation was detected according to manufacturer protocol. […] Then, 20 µL of Succinate Detection Reagent II was added to the reactions and incubated for 10 min at room temperature before the luciferase-generated luminescence was recorded on a plate-reading luminometer. Succinate standard curves were used to determine the sensitivity and linear range of the bioluminescent succinate detection. […] Succinate standards were serially diluted two-fold from 15 µM to 58.6 nM and a 0 succinate blank. 10 µL of succinate standards were used for detection as described above. […] Reactions were incubated at room temperature for 10 minutes and succinate detected. […] Measured IC50s were calculated from fitting the percentage activity data to the [Inhibitor] vs. normalized response – variable slope least squares nonlinear regression in GraphPad Prism 9. True IC50s were calculated from measured IC50s with the equation derived by Wu et al.[26] describing the relationship between the measured IC50 of an inhibitor and the percentage of substrate conversion.

T1 sequence (Q9GZT9 181-402): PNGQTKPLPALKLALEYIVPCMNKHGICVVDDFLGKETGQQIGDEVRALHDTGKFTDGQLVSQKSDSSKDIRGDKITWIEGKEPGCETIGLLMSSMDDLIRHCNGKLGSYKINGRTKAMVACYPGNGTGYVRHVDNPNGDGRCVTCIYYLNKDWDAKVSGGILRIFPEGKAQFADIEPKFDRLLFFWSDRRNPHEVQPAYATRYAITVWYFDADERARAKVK

The Ki is a dissociation constant, usually derived from enzyme kinetics or from competition with a known ligand. A word on the IC50: it is the concentration needed to halve the response being measured. As for `CCCC(=O)O` [Butyrate], the “binding to the 2-OG and PHD2_181-402 complex (WaterLOGSY)” value on PHD2_181-402 [1] (10 mM butyrate, 25 μM PHD2_181-402, with 150 μM 2-OG) is reported as “could not bind; also recorded: absence of binding”. In addition, the “binding to PHD2_181-402 (WaterLOGSY signal)” value was “clear positive signal, indicative of binding” on PHD2_181-402 [1] and “indicating binding” on PHD2_181-402 [1] (listed as Butyric acid). Besides, the “mRNA expression of HIF-1α targets Bnip3, Bnip3l, Glut1” value in the assay with murine colon tissue (colon tissue, rectal 100 mM butyrate or 1.5 mM IOX2, 1 h) is recorded as “rescued”. In addition, the “mRNA expression of HIF-1α targets Bnip3, Bnip3l, Glut1, butyrate with MCPA” value with murine colon tissue (colon tissue, rectal 100 mM butyrate with 10 mM MCPA, 1 h) is listed as “rescued”. Further, the “colon tissue 2-OG levels” value with murine colon tissue (rectal 100 mM butyrate or 1.5 mM IOX2, 1 h) was “rescued”. In addition, on PHD2_181-402 [2] (2-OG at 1, 5, 10, 40 or 100 µM), the “change of IC50 with increasing 2-OG” value is reported as “did not change”. Besides, on PHD2_181-402 [2] (calculated from true IC50 with the IC50 to Ki conversion equation of Cer et al., read-out: noncompetitive Ki), the Ki is 5.3 ± 0.5 mM. Further, at PHD2_181-402 [2] (from 2-OG titration, WaterLOGSY and MST), the mode of inhibition entry is “noncompetitive”. Further, the IC50 on PHD2_181-402 [2] (read-out: True IC50) came out at 5.3 ± 0.5 mM.
